Experimental findings from patent US9730448B2, “Tetrazolinone compound and use of same” (Sumitomo Chemical Company, Limited, priority 2013, dated 2017) are described below.

Bounds are passed on as bounds.

The experiment deals with cucumber powdery mildew fungus (Sphaerotheca fuliginea, a QoI-resistant strain, cytochrome b position 143 glycine to alanine). Briefly: Test Example 6 and Comparative Test Example: control of cucumber powdery mildew (QoI-resistant strain), foliar spray on cucumber. It counts as in vivo. The settings on record: 500 ppm water dilution sprayed on cucumber (SAGAMI HANJIRO); inoculated after air-drying; investigated after 8 days in greenhouse.

Regarding `Cc1cc(-c2cccs2)ccc1OCc1ccccc1-n1nnn(C)c1=O` [1-{[2-[2-methyl-4-(thiophen-2-yl)phenoxy]methyl]phenyl}-4-methyl-1,4-dihydrotetrazol-5-one], the “area of lesion spots on the treated plant relative to that on an untreated plant” value was no less than 70%.
